# Measured values published in the supplement of paper PMC11208160.
# Test: recombinant barcode read abundance after kanamycin selection (control-corrected) (log10(CPM+1)); higher = more efficient recombination; sequences stand for … in AGTGCAGAGAAAATCGGCCAGTTTTCTCTGCCTGCAGTCCGCATGCCGT…AGATTTATGCAGCGGACTGCCTTTCTCCCAAAGTGATAAACCGGACAGTATCATGGACCGGTTTTCCCGGTAATCCGTATTTGCAAGGTTGGTTTCACT; site = the 11-nt target
# Procedure, shortened: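 This pooled E. coli screen matched targets with IS621 bridge RNA target-binding loops. Plating was done in duplicate on chloramphenicol/ampicillin LB agar as a control and on chloramphenicol/ampicillin/kanamycin plus 0.1 mM IPTG. Recombination efficiency reflects barcode counts at recombinant junctions as counts per million, averaged and control-corrected. The figures are log10(CPM+1).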
# 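Note: IS621 recombinase and bridge RNA in Escherichia coli cells.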
row,Sequence,recombinant barcode read abundance (log10)
1,TGGTGTCCTTGGGTTCTAACCTGTTGCCT (site TGGAGTCCTAG),0.32
2,TGGTGTCCTTGGGTTCTAACCTGTTGCCT (site TGGCGTCCTAG),0.279
3,TGGTGTCCTTGGGTTCTAACCTGTTGCCT (site TGGGGTCCTAG),0.158
4,TGGTGTCCTTGGGTTCTAACCTGTTGCCT (site TGGTGTCCTAG),1.58
5,TGGTTACCTTGGGTTCTAACCTGTTGCGG (site CACACGACTAA),0.0374
6,TGGTTACCTTGGGTTCTAACCTGTTGCGG (site TGGTTACCTCC),1.49
7,TGGTTGTCTTGGGTTCTAACCTGTTGCCT (site TGGCTGTCTAG),0.522
8,TGGTTGTCTTGGGTTCTAACCTGTTGCCT (site TGGTTGTCTAG),1.09
9,TGTACGACTTGGGTTCTAACCTGTTGCCT (site TGTACGACTAG),0.146
10,TGTACGACTTGGGTTCTAACCTGTTGCCT (site TGTACGTCTAA),0.0793
11,TGTACGACTTGGGTTCTAACCTGTTGCGG (site GAGTGTTCTAA),0.0347
12,TGTACGACTTGGGTTCTAACCTGTTGCGG (site TGTACGACTCC),0.7
13,TGTAGTACTTGGGTTCTAACCTGTTGCCT (site TGGAGTACTAA),0.0714
14,TGTAGTACTTGGGTTCTAACCTGTTGCCT (site TGTAGTACTAG),0.229
15,TGTATGACTTGGGTTCTAACCTGTTGCCT (site AGTATGACTAG),0.65
16,TGTATGACTTGGGTTCTAACCTGTTGCCT (site CGTATGACTAG),0.0259
17,TGTATGACTTGGGTTCTAACCTGTTGCCT (site GGTATGACTAG),0.263
18,TGTATGACTTGGGTTCTAACCTGTTGCCT (site TGTATGACTAG),0.46
19,TGTATGTCTTGGGTTCTAACCTGTTGCCT (site AGTATGTCTAG),0.0212
20,TGTATGTCTTGGGTTCTAACCTGTTGCCT (site CGTATGTCTAG),0.529
21,TGTATGTCTTGGGTTCTAACCTGTTGCCT (site GGTATGTCTAG),0.402
22,TGTATGTCTTGGGTTCTAACCTGTTGCCT (site TGTATGTCTAG),0.0364

row,Sequence,recombinant barcode read abundance (log10)
1,TGTCAACCTTGGGTTCTAACCTGTTGCGT (site TGTCAAACTAC),0.0902
2,TGTCAACCTTGGGTTCTAACCTGTTGCGT (site TGTCAACCTAC),1.02
3,TGTCAAGCTTGGGTTCTAACCTGTTGCCT (site TGTCAAACTAG),0.574
4,TGTCAAGCTTGGGTTCTAACCTGTTGCCT (site TGTCAACCTAG),0.045
5,TGTCAAGCTTGGGTTCTAACCTGTTGCCT (site TGTCAAGCTAG),0.46
6,TGTCAAGCTTGGGTTCTAACCTGTTGCCT (site TGTCAATCTAG),0.295
7,TGTCCACCTTGGGTTCTAACCTGTTGCCT (site AGTCCACCTAG),0.0595
8,TGTCCACCTTGGGTTCTAACCTGTTGCCT (site CGTCCACCTAG),0.267
9,TGTCCACCTTGGGTTCTAACCTGTTGCCT (site GGTCCACCTAG),0.165
10,TGTCCACCTTGGGTTCTAACCTGTTGCCT (site TGTCCACCTAG),0.623
11,TGTCGAGCTTGGGTTCTAACCTGTTGCGG (site TGTCGAGCTCC),0.977
12,TGTCGAGCTTGGGTTCTAACCTGTTGCGG (site TTCCGAGCTCC),0.00866
13,TGTCGGACTTGGGTTCTAACCTGTTGCAC (site TGTCGGACTAT),0.741
14,TGTCGGACTTGGGTTCTAACCTGTTGCAC (site TGTCGGACTCT),0.214
15,TGTCGGACTTGGGTTCTAACCTGTTGCAC (site TGTCGGACTGT),0.38
16,TGTCGGACTTGGGTTCTAACCTGTTGCAC (site TGTCGGACTTT),0.0148
17,TGTCGGCCTTGGGTTCTAACCTGTTGCTT (site CTATTTACTCC),0.107
18,TGTCGGCCTTGGGTTCTAACCTGTTGCTT (site TGTCGGCCTAA),0
19,TGTCTCCCTTGGGTTCTAACCTGTTGCTT (site TGTCTACCTTA),0.0416
20,TGTCTCCCTTGGGTTCTAACCTGTTGCTT (site TGTCTCCCTAA),0.777
21,TGTGACACTTGGGTTCTAACCTGTTGCAA (site AACAGGCCTAG),0.121
22,TGTGACACTTGGGTTCTAACCTGTTGCAA (site TGTGACACTTT),1.54

row,Sequence,recombinant barcode read abundance (log10)
1,TGTGAGTCTTGGGTTCTAACCTGTTGCCT (site TGTGAGTCTAA),0.0418
2,TGTGAGTCTTGGGTTCTAACCTGTTGCCT (site TGTGAGTCTAC),0.73
3,TGTGAGTCTTGGGTTCTAACCTGTTGCCT (site TGTGAGTCTAG),1.1
4,TGTGAGTCTTGGGTTCTAACCTGTTGCCT (site TGTGAGTCTAT),0.0543
5,TGTGAGTCTTGGGTTCTAACCTGTTGCTT (site TGTGAGTCTAA),0.549
6,TGTGAGTCTTGGGTTCTAACCTGTTGCTT (site TGTGAGTCTAC),0.0217
7,TGTGAGTCTTGGGTTCTAACCTGTTGCTT (site TGTGAGTCTAG),0.193
8,TGTGAGTCTTGGGTTCTAACCTGTTGCTT (site TGTGAGTCTAT),0.799
9,TGTGGGTCTTGGGTTCTAACCTGTTGCCT (site TATGGGTCTAG),0.0229
10,TGTGGGTCTTGGGTTCTAACCTGTTGCCT (site TGTGGGTCTAG),0.393
11,TGTGTCCCTTGGGTTCTAACCTGTTGCCG (site TGTCTCCCTCG),0.0681
12,TGTGTCCCTTGGGTTCTAACCTGTTGCCG (site TGTGTCCCTCG),1.1
13,TGTTAGCCTTGGGTTCTAACCTGTTGCCA (site GGTTAGCCTAG),0.0168
14,TGTTAGCCTTGGGTTCTAACCTGTTGCCA (site TGTTAGCCTTG),0.0869
15,TGTTAGCCTTGGGTTCTAACCTGTTGCCT (site GGCTAGCCTAG),0.0606
16,TGTTAGCCTTGGGTTCTAACCTGTTGCCT (site TGTTAGCCTAG),0.0878
17,TGTTGCACTTGGGTTCTAACCTGTTGCCT (site TGTTGCACTAG),0.0616
18,TGTTGCACTTGGGTTCTAACCTGTTGCCT (site TGTTGGCCTAG),0.0587
19,TTAACTACTTGGGTTCTAACCTGTTGCTC (site TTAACTACTAA),0.0118
20,TTAACTACTTGGGTTCTAACCTGTTGCTC (site TTAACTACTCA),0.126
21,TTAACTACTTGGGTTCTAACCTGTTGCTC (site TTAACTACTGA),0.195
22,TTAACTACTTGGGTTCTAACCTGTTGCTC (site TTAACTACTTA),0

row,Sequence,recombinant barcode read abundance (log10)
1,TTAAGACCTTGGGTTCTAACCTGTTGCCT (site TTAAGACCTAG),1.37
2,TTAAGACCTTGGGTTCTAACCTGTTGCCT (site TTAAGCCCTAG),0.336
3,TTAAGTCCTTGGGTTCTAACCTGTTGCCT (site TTAAGTCCTAG),0.448
4,TTAAGTCCTTGGGTTCTAACCTGTTGCCT (site TTCAGTCCTAT),0.134
5,TTACAATCTTGGGTTCTAACCTGTTGCCT (site ATACAATCTAG),0.31
6,TTACAATCTTGGGTTCTAACCTGTTGCCT (site CTACAATCTAG),0.337
7,TTACAATCTTGGGTTCTAACCTGTTGCCT (site GTACAATCTAG),0.0953
8,TTACAATCTTGGGTTCTAACCTGTTGCCT (site TTACAATCTAG),0.764
9,TTACCTACTTGGGTTCTAACCTGTTGCCT (site TTACCAACTAG),0.237
10,TTACCTACTTGGGTTCTAACCTGTTGCCT (site TTACCCACTAG),0.0698
11,TTACCTACTTGGGTTCTAACCTGTTGCCT (site TTACCGACTAG),0.278
12,TTACCTACTTGGGTTCTAACCTGTTGCCT (site TTACCTACTAG),0.802
13,TTACGAGCTTGGGTTCTAACCTGTTGCCT (site TCACTAGCTAG),0.131
14,TTACGAGCTTGGGTTCTAACCTGTTGCCT (site TTACGAGCTAG),1.08
15,TTACGCACTTGGGTTCTAACCTGTTGCCT (site TAACCCACTAG),0.264
16,TTACGCACTTGGGTTCTAACCTGTTGCCT (site TTACGCACTAG),1.34
17,TTACGCGCTTGGGTTCTAACCTGTTGCGG (site TTACGAGCTCC),0.258
18,TTACGCGCTTGGGTTCTAACCTGTTGCGG (site TTACGCGCTCC),1.67
19,TTACGCGCTTGGGTTCTAACCTGTTGCGG (site TTACGGGCTCC),0.0728
20,TTACGCGCTTGGGTTCTAACCTGTTGCGG (site TTACGTGCTCC),0.0492
